The target of one assay is Recombinant Btk (Homo sapiens, UniProt Q06187). As to the kind of experiment: Kinase activity (BTK) inhibition assay, TR-FRET. Format: biochemical. The following applies: read-out: BTK kinase inhibitory activity grade (A/B/C). As for the experimental part: Kinase Activity (BTK) Inhibition Assay
The inhibitory effects of the compounds disclosed herein on BTK kinase activity were tested in an assay based on a time resolved fluorescence resonance energy transfer (TR-FRET) method. Recombinant Btk was pre-incubated with the compound disclosed herein in an assay buffer containing 50 mM. Tris pH 7.4, 10 mM MgCl2, 2 mM MnCl2, 0.1 mM EDTA, 1 mM DTT, 20 nM SEB, 0.1% BSA, 0.005% tween-20 at room temperature for 1 hour. The reaction was initiated by the addition of ATP (at the ATP Km concentration) and the peptide substrate (Biotin-[…]-NH2). After incubation for 1 hour at room temperature, an equal volume of stop solution containing 50 mM HEPES pH 7.0, 800 mM KF, 20 mM EDTA, 0.1% BSA, p-Tyr66 antibody linked with Eu cryptate and streptavidin-labeled XL665 was added to stop the reaction. The plate was incubated for an additional hour at room temperature and then the TR-FRET signal was read on a BMG PHERAstar FS instrument (ex337 nm, em 620 nm/665 nm). Based on the ratio of the signal of fluorescence at […] to 665 nm, the enzyme activity was calculated with an increased compound concentration. IC50 of each compound was obtained by fitting the data to the four-parameter equation of Graphpad Prism software.
Background: Time-resolved FRET reads energy transfer from a long-lived donor to a nearby acceptor.

A further assay deals with EGFR (Homo sapiens, UniProt P00533). As to the kind of experiment: In vitro kinase selectivity assay, EGFR (TR-FRET). The following applies: read-out: EGFR kinase inhibitory activity grade. Format: biochemical. The method, then: (§1) The assay platform for EGFR and ITK kinase activities was established using time-resolved fluorescence resonance energy transfer-based method; the assay platform for LCK, SRC and LYN kinase activities was established using Z′-Lyte method; and the assay platform for TEC and JAK3 kinase activities was established using Lance Ultra method. The inhibitory effects of the compounds disclosed herein on different kinase activities were tested separately for each compound at 11 concentrations. The IC50 value of each compound was calculated using Graphpad Prism software.
Chain of EGFR (P00533 25-1210): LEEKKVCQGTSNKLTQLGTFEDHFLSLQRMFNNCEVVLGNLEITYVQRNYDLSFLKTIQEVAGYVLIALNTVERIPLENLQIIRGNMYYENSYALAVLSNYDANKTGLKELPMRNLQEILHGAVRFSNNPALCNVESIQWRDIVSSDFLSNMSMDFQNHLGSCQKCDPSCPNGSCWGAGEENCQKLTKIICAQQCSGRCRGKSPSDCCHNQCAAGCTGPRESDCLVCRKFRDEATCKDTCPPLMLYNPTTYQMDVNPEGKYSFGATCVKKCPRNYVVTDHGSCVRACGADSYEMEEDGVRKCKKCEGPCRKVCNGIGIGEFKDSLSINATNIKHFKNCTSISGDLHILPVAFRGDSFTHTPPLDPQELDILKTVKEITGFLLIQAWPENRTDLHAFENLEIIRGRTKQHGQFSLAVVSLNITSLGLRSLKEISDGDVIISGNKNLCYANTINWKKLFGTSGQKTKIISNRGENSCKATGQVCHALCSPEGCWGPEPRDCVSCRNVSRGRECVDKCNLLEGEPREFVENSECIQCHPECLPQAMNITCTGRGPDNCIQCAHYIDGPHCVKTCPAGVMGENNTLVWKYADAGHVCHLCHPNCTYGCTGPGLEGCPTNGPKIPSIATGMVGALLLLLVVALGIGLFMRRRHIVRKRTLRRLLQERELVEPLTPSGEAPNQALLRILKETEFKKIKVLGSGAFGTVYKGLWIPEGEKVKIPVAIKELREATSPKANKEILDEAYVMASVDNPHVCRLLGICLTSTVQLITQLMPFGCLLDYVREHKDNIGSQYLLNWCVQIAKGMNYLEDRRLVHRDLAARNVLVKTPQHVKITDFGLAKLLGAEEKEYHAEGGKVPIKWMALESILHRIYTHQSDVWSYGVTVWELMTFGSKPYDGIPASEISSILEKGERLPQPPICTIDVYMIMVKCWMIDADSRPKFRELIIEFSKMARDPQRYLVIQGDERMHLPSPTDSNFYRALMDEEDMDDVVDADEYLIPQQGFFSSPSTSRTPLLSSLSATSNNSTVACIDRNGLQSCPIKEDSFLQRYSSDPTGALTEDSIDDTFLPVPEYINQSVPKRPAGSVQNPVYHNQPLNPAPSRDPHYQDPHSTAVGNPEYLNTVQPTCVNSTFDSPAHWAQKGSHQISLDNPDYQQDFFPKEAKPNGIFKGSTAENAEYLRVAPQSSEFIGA

In assay [1] the test system is diffuse large B-cell lymphoma cell line TMD-8. The assay can be described thus: Pharmacodynamic assay, TMD-8 xenograft in NOD.SCID mice. In kind it is in vivo. The settings on record: p.o. daily for 21 days. As for the experimental part:
Severe immunodeficiency NOD.SCID mice were purchased from Beijing Vital River Laboratory Animal Technology Co., Ltd., and were housed in SPF grade animal room. After TMD-8 cells were cultured to the sufficient amount, the cells were collected by centrifugation and washed twice with PBS. Finally, the cells were resuspended in serum-free RPMI 1640 medium plus Matrigel (1:1 v/v). 0.2 ml of cell suspension was injected subcutaneously on the right flank of each mouse using 1 ml syringe and 25 G syringe needle. The tumor size was measured with a caliper after about one week post injection. The tumor volume was calculated according to the following formula: tumor volume=(length×width^2)/2. When the tumor volume reached about 100-200 mm^3, the mice were grouped and p.o. administered daily for 21 days.

The target in a further assay is LCK (Homo sapiens, UniProt P06239). As to the kind of experiment: In vitro kinase selectivity assay, LCK (Z'-Lyte). The following applies: read-out: LCK kinase inhibitory activity grade. Format: biochemical. As for the experimental part: as §1
Chain of LCK (P06239 whole entry, species assumed): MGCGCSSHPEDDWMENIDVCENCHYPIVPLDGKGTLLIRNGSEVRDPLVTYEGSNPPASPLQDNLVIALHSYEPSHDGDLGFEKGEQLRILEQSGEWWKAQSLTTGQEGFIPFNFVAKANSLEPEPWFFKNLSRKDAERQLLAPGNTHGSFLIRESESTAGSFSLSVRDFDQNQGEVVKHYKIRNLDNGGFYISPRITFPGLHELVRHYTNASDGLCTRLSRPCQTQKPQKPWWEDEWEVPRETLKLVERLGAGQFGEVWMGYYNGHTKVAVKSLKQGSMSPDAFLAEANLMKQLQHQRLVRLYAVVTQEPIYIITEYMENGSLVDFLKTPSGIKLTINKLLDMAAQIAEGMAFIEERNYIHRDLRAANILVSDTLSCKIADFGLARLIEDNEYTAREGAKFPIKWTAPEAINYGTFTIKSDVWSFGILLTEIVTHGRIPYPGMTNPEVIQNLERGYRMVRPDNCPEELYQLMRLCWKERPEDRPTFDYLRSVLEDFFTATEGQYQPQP
For another assay, the target named is T1, TEC (Homo sapiens, UniProt P42680).
T1 sequence (P42680 1-631): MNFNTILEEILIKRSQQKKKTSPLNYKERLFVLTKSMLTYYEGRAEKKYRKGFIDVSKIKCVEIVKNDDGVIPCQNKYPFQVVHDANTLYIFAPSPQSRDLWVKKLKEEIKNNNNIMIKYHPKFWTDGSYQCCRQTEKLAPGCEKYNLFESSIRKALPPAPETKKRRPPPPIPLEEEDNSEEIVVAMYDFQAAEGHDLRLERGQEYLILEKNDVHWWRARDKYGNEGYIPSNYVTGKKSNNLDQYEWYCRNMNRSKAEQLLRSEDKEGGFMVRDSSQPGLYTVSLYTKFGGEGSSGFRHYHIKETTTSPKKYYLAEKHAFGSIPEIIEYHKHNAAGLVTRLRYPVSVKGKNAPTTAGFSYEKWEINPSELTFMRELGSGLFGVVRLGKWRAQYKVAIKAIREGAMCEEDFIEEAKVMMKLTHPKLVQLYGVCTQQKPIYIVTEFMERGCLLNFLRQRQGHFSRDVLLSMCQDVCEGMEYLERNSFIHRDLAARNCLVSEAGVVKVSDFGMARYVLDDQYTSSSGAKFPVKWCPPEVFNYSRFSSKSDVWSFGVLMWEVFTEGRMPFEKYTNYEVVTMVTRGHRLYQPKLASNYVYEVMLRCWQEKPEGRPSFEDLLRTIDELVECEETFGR
As to the kind of experiment: In vitro kinase selectivity assay, TEC (Lance Ultra). Format: biochemical. The following applies: read-out: TEC kinase inhibitory activity grade. The method, then:
as §1

For a further assay, the target named is LYN (Homo sapiens, UniProt P07948). The assay can be described thus: In vitro kinase selectivity assay, LYN (Z'-Lyte). In kind it is biochemical. The following applies: read-out: LYN kinase inhibitory activity grade. As for the experimental part:
as §1

A further assay concerns the target SRC (Homo sapiens, UniProt P12931). The assay can be described thus: In vitro kinase selectivity assay, SRC (Z'-Lyte). Format: biochemical. The following applies: read-out: SRC kinase inhibitory activity grade. As for the experimental part:
as §1

Another assay has as its target T2, ITK (Homo sapiens, UniProt Q08881).
T2 sequence (Q08881 1-620): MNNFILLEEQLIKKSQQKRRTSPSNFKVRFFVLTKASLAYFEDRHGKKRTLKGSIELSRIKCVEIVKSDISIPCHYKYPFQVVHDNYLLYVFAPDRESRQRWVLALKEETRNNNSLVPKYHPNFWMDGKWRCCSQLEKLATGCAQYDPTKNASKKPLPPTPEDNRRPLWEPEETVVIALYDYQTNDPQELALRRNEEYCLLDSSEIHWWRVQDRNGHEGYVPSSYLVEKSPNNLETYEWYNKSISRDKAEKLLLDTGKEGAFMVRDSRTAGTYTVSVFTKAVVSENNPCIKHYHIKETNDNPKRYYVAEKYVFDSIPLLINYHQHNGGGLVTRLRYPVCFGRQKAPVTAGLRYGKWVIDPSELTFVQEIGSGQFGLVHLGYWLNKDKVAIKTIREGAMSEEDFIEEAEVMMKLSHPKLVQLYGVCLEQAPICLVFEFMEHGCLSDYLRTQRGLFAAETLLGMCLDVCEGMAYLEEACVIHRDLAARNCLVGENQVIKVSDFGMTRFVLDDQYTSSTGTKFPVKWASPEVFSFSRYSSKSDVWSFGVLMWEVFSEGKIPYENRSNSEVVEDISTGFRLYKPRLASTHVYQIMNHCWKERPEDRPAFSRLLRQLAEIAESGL
The assay can be described thus: In vitro kinase selectivity assay, ITK (TR-FRET). In kind it is biochemical. The settings on record: read-out: ITK kinase inhibitory activity grade. As for the experimental part:
as §1

Chain of LYN (P07948 whole entry, species assumed): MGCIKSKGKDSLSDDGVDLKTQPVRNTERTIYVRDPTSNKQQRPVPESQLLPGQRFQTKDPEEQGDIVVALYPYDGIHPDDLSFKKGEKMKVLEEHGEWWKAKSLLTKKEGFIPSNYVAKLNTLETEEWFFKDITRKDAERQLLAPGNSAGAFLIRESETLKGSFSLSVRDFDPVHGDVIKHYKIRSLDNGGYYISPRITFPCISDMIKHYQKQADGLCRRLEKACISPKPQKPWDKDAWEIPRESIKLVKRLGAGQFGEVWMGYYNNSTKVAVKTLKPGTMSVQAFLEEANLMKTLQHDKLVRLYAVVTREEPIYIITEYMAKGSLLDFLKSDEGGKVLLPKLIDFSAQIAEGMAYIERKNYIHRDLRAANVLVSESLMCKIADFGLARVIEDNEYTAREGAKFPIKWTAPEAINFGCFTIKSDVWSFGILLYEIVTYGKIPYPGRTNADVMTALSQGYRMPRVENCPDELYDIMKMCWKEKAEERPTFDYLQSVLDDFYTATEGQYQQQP
Chain of SRC (P12931 whole entry, species assumed): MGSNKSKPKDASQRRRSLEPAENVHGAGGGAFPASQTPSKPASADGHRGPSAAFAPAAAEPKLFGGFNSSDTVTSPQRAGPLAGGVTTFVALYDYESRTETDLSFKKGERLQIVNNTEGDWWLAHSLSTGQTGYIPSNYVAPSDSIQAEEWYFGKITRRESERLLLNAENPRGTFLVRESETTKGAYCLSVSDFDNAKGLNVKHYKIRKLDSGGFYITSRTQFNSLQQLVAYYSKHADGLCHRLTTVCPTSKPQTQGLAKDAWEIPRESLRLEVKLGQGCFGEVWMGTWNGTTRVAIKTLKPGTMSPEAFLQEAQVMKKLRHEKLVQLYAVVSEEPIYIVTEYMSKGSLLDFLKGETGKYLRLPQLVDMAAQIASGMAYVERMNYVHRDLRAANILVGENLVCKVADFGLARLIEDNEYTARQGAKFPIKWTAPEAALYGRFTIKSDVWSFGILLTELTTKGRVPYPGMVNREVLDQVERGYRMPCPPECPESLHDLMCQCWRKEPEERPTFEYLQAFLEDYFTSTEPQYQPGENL
Chain of Recombinant Btk (Q06187 whole entry): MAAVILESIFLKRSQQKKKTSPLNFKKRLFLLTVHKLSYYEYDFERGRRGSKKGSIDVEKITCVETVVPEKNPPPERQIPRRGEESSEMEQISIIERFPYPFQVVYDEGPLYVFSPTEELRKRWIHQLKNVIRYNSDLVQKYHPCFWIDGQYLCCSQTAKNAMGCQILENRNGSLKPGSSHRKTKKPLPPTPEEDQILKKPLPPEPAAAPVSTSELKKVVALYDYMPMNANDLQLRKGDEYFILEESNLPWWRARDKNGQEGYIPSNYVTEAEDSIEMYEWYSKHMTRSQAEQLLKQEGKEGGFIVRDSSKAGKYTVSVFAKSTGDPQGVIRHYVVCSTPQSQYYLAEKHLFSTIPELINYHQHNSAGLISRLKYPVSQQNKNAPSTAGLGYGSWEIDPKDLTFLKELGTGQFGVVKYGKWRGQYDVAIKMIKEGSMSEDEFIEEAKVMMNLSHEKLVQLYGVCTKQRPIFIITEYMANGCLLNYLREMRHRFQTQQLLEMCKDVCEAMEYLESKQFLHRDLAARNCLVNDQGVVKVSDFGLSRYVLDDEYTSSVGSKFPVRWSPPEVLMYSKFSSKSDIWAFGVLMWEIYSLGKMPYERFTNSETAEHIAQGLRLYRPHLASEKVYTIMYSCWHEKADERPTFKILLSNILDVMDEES

For the compound `CC#CC(=O)N1C[C@H](n2nc(-c3ccc(Oc4ccc(Cl)cn4)cc3)c(C(N)=O)c2N)CCC12CC2` [WS-416, (R)-5-amino-1-(4-(2-butynoyl)-4-azaspiro[2.5]oct-6-yl)-3-(4-((5-chloropyridin-2-yl)oxy)phenyl)-1H-pyrazole-4-carboxamide], the IC50 at Recombinant Btk is less than 0.1 µM; on EGFR it was more than 1 µM; on LCK, more than 1 µM; on TEC it was less than 0.1 µM; on LYN, more than 1 µM; at SRC, more than 1 µM. On ITK, the IC50 was more than 1 µM. Besides, in assay [1], the “growth of TMD-8 tumor in vivo” value is reported as “significantly inhibited the growth”.

Turning to `N#CN1C[C@H](n2nc(-c3ccc(Oc4ccc(Cl)cn4)cc3)c(C(N)=O)c2N)CCC12CC2` [WS-413, (R)-5-amino-3-(4-((5-chloropyridin-2-yl)oxy)phenyl)-1-(4-cyano-4-azaspiro[2.5]oct-6-yl)-1H-pyrazole-4-carboxamide], the IC50 on Recombinant Btk is less than 0.1 µM; at EGFR, 0.1 to 1 µM; on LCK it was more than 1 µM; at TEC, less than 0.1 µM; at LYN it was more than 1 µM; at SRC it was more than 1 µM. The IC50 at ITK is more than 1 µM. For the same compound, the “growth of TMD-8 tumor in vivo” value in assay [1] is “significantly inhibited the growth”.

(Values after patent US10882843B2, “5-aminopyrazole carboxamide derivative as BTK inhibitor and preparation method and pharmaceutical composition thereof” (SUZHOU SINOVENT PHARMACEUTICALS CO., LTD., priority 2016, dated 2021).)
